According to patent publication US7695751B2 (priority 2004, dated 2010):
Several values for one entry are separate records, joined by “and”; a condition that tells them apart may be missing. Identical values can stand only once.

Test system: Salmonella Typhimurium strain TA98
Assay type: cell-based

With Aflatoxin B1 [AFB1 control] as the substance, how does the MR read?
The MR was 13.75 and 12.35.

What about the “Number of mutant colonies/plate” value of the same substance?
Its value is 383 ± 65 colonies/plate.

What about the “The number of mutant colonies/plate” value of the same substance?
The value was 385 ± 97 colonies/plate.
